Source: article PMC4677828 (Combinatorial chemistry & high throughput screening, 2015)

Experiments:
Format in all cases: biochemical
HDAC1 = HDAC1 (Homo sapiens, UniProt Q13547); assay: single-concentration inhibition assay; conditions: 100 μM inhibitor
HDAC2 = HDAC2 (Homo sapiens, UniProt Q92769); assay: fluorogenic HDAC assay; conditions: 5 μL of 200 μM HDAC substrate in 50 μL; 30 min pre-incubation; 37 °C; BSA
HDAC6 = target: T1, HDAC6 (Homo sapiens, UniProt Q9UBN7); assay: single-concentration inhibition assay; conditions: 100 μM inhibitor
T1 sequence (Q9UBN7 1-1215): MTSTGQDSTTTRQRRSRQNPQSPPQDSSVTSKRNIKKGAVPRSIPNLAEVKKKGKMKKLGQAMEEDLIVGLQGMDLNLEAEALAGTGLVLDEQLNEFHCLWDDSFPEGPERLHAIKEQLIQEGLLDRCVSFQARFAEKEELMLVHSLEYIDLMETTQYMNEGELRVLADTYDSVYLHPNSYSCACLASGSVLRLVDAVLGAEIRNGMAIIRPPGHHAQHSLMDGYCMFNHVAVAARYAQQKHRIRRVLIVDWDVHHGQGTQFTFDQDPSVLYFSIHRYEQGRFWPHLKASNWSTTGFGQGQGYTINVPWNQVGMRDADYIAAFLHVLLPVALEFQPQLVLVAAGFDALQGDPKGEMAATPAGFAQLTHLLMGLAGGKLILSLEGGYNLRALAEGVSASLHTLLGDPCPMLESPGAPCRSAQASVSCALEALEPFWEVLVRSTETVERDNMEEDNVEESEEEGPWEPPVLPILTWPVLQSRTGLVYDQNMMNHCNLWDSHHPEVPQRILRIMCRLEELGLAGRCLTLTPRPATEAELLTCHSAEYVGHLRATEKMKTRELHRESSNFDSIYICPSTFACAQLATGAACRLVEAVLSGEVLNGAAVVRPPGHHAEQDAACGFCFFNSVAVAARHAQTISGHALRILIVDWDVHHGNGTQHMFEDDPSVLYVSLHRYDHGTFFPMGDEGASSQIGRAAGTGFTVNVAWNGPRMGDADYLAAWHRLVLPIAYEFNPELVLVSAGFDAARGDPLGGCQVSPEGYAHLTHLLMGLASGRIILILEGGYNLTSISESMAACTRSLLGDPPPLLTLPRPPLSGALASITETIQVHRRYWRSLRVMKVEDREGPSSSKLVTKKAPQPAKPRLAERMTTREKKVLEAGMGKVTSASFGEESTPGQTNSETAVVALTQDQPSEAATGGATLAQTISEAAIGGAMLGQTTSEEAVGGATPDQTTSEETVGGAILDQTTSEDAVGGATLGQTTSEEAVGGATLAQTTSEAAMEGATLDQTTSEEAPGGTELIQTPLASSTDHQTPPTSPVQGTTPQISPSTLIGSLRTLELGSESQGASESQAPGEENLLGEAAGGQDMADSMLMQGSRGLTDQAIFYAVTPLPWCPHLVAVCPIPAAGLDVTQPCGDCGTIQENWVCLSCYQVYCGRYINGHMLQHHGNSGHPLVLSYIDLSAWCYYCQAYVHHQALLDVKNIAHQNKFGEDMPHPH

Sequence of HDAC2 (Q92769 whole entry): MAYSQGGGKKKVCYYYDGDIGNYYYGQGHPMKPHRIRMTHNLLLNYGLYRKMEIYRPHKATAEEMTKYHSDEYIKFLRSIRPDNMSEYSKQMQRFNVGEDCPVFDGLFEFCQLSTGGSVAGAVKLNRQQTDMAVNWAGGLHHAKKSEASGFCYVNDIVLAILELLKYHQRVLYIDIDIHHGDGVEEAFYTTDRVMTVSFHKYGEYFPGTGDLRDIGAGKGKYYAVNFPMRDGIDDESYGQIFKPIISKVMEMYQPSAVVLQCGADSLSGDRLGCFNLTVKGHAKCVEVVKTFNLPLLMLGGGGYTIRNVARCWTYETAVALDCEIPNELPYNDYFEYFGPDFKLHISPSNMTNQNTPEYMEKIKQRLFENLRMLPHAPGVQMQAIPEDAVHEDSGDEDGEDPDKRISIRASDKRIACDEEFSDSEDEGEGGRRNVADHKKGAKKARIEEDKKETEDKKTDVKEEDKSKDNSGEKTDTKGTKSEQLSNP
Sequence of HDAC1 (Q13547 whole entry): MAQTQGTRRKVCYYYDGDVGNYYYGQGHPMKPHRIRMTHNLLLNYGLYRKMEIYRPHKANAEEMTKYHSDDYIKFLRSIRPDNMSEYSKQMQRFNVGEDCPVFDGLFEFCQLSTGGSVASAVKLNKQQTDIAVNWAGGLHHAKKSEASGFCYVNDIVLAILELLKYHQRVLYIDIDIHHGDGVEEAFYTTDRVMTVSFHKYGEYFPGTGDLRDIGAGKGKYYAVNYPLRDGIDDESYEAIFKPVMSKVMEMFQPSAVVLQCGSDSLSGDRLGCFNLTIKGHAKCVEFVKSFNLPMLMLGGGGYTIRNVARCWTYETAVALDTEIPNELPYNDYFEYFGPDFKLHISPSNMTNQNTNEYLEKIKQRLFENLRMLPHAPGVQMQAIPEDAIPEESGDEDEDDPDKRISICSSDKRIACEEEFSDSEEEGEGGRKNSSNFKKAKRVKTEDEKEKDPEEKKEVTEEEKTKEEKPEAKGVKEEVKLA

% inhibition at 100 μM (HDAC1): 86.90%
IC50 (HDAC2): 16.9 µM
% inhibition at 100 μM (HDAC6): 34.28%
Substance: ST088357
